Article PMC7387483, “In silico identification and functional validation of linear cationic α-helical antimicrobial peptides in the ascidian Ciona intestinalis” (Scientific Reports, 2020)
Where no end group is shown, it is not given here.

How the values were obtained:
[1] = system: Escherichia coli (NBRC14237); format: cell-based; settings: for Antimicrobial activity against Escherichia coli (in words): segments with Na^4vSS less than − 30, Supplementary Fig. S1; for MIC, E. coli (NBRC 14237): NBRC14237
Experimental: (§1) Antimicrobial activities of the peptides were measured as described previously. Synthetic peptides were added to the microbial suspension in the individual wells of a microplate at final concentrations of 3.125, 6.25, 12.5, and 25 μM. The relative activities (RA) were calculated by the equation RA = ((APC − ANC) − ASA)/(APC − ANC), where APC, ANC, and ASA represent the absorbance of positive control, negative control, and samples, respectively. The bacteria and yeast strains used were Escherichia coli (NBRC14237), Staphylococcus aureus (NBRC12732), Pseudomonas aeruginosa (NBRC12582), and Saccharomyces cerevisiae (NBRC10217), which were purchased from Biological Resource Center, National Institute of Technology and Evaluation (NBRC, Tokyo, Japan). The interaction between Ciona LCAMPs and membrane interface was predicted using AmphipaSeek server (https://npsa-pbil.ibcp.fr/cgi-bin/npsa_automat.pl?page=/NPSA/npsa_amphipaseek.html)[28].

[2] = cited from earlier work
Experimental: We examined the effects of five novel Ciona LCAMPs in the presence of NaCl on antimicrobial activity against E. coli. Reflective of the habitat of C. intestinalis, salt resistance was found in all peptides at the concentration of 12.5 μM (Fig. 2).

[3] = system: Saccharomyces cerevisiae (NBRC10217); format: cell-based
Experimental: as §1

[4] = system: Pseudomonas aeruginosa (NBRC12582); format: cell-based
Experimental: as §1

[5] = system: Staphylococcus aureus (NBRC12732); format: cell-based
Experimental: as §1

bacteria = settings: in vitro development-resistance studies; cited from earlier work
Excerpt: Antimicrobial peptides are crucial and widespread effector molecules of the innate immune system and are a part of the first line of host defense against invading pathogens[1],[2]. To date, thousands of antimicrobial peptides have been identified from bacteria to mammals and have been classified into several groups on basis of the structure and sequence features[3]–[5]. Of these, linear cationic α-helical antimicrobial peptides (LCAMPs), the genes of which encode short amphipathic peptides without cysteine residues, are the most abundant and widespread in organisms. LCAMPs are known for their ...

Substance	Antimicrobial activity against Escherichia coli (in words) [1]	MIC, E. coli (NBRC 14237) [1] [µM]	MIC, S. cerevisiae (NBRC 10217) [3] [µM]	MIC, S. aureus (NBRC 12732) [5] [µM]	other results
AERLMRKAAKDHWSNKMAKDVIWWEQ [KH.S930.2, cationic amphipathic α-helical segment with Na4vSS less than − 30, synthetic peptide]	no or weak antimicrobial activities	–	–	–	–
ALRSAVRTVARVGRAVLPHVAI [Ci-PAP-A, known salt-resistant LCAMP from C. intestinalis hemocyte EST database]	–	–	–	–	NaCl concentration in the presence of which antimicrobial activity is exhibited [2]: 100 mM
FGRRRRVPGRRRRWWNERAMNEI [KH.S1007.2, cationic amphipathic α-helical segment with Na4vSS less than − 30, synthetic peptide]	no or weak antimicrobial activities	–	–	–	–
FRRRRRRRRHWHHHHHYHYHHHRRRRRRRRRW [KH.L63.9, cationic amphipathic α-helical segment with Na4vSS less than − 30, synthetic peptide]	no or weak antimicrobial activities	–	–	–	–
KGGKFLNFLKKAAKVGAKVGMAALG [KH.S908.1]	–	< 3.125	6.25	< 3.125	MIC, P. aeruginosa (NBRC 12582) [4]: 6.25 µM
KLKTWPKNYWRKVWSKKNWRKFVKKFKHW [KH.S921.1]	–	< 3.125	–	< 3.125	MIC, P. aeruginosa (NBRC 12582) [4]: < 3.125 µM
RRRRRIAARIGSGVAQTGGELI [KH.C1.365, cationic amphipathic α-helical segment with Na4vSS less than − 30, synthetic peptide]	no or weak antimicrobial activities	–	–	–	–
SRRRFDFSRRRIYVARRRSLAFAHRRR [KH.C7.94]	–	6.25	6.25	6.25	–
TINKKFRWHGKRKWWLRFVKQ [KH.S1531.4]	–	< 3.125	6.25	< 3.125	–
WRSLGRTLLRLSHALKPLARRSGW [Ci-MAM-A, known salt-resistant LCAMP from C. intestinalis hemocyte EST database]	–	–	–	–	NaCl concentration in the presence of which antimicrobial activity is exhibited [2]: 450 mM
WWLSRRRSSLFYWR [KH.C1.640]	–	< 3.125	12.5	< 3.125	–
pexiganan	–	–	–	–	Potential for induction of bacterial resistance (bacteria): low potential for induction of bacterial resistance
